Patent US9999619B2, “Piperidin-4-yl azetidine derivatives as JAK1 inhibitors” (Incyte Corporation, priority 2010, dated 2018)

Key:
Format in all cases: biochemical
Jak2 (a.a. 828-1132) = Jak2 (a.a. 828-1132) (Homo sapiens (Human), UniProt O60674); test: In vitro JAK kinase assay (HTRF, phosphorylation of a biotinylated peptide), JAK2; settings: measured at 1 mM ATP
How it was run: (§1)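 N-terminal His-tagged catalytic domains, baculovirus-expressed in insect cells, phosphorylated a biotinylated peptide for 1 hr at room temperature. EDTA stop was followed by SA-APC and Eu-Py20 antibody for 40 minutes, with phosphopeptide read by HTRF.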

[1] = target: human JAK1 (a.a. 837-1142) (Homo sapiens, UniProt P23458); test: In vitro JAK kinase assay (HTRF, phosphorylation of a biotinylated peptide), JAK1; settings: measured at 1 mM ATP
How it was run: as §1

[2] = target: human JAK1 (a.a. 837-1142); test: as above; settings: ratio of JAK2 IC50 to JAK1 IC50, measured at 1 mM ATP
How it was run: as §1

Chain of Jak2 (a.a. 828-1132) (O60674 828-1132): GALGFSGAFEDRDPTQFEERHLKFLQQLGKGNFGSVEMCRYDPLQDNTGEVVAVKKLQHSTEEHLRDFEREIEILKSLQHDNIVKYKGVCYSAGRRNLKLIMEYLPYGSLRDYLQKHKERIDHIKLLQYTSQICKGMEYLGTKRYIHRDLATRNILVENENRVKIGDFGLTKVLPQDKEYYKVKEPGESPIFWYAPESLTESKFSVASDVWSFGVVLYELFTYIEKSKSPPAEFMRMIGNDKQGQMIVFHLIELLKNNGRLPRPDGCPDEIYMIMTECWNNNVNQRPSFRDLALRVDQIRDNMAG

`COc1cccc(C(=O)N2CCC(N3CC(CC#N)(n4cc(-c5ncnc6[nH]ccc56)cn4)C3)CC2)c1` [Example 31, {1-[1-(3-methoxybenzoyl)piperidin-4-yl]-3-[4-(7H-pyrrolo[2,3-d]pyrimidin-4-yl)-1H-pyrazol-1-yl]azetidin-3-yl}acetonitrile] was tested. Which IC50 (Jak2 (a.a. 828-1132)) did it give?
The IC50 was ≤ 10 nM.

And the IC50 [1]?
The IC50 was ≤ 5 nM.

And the “IC50 Ratio JAK2/JAK1” value [2]?
The value was 1.9.

Which IC50 (Jak2 (a.a. 828-1132)) does the source give for `COc1c(F)c(F)cc(C(=O)N2CCC(N3CC(CC#N)(n4cc(-c5ncnc6[nH]ccc56)cn4)C3)CC2)c1F` [Example 32, {3-[4-(7H-pyrrolo[2,3-d]pyrimidin-4-yl)-1H-pyrazol-1-yl]-1-[1-(2,4,5-trifluoro-3-methoxybenzoyl)piperidin-4-yl]azetidin-3-yl}acetonitrile] here?
The IC50 was 10 to 50 nM.

And the IC50 [1]?
Its IC50 is ≤ 5 nM.

And the “IC50 Ratio JAK2/JAK1” value [2]?
The value was 4.4.

Which IC50 (Jak2 (a.a. 828-1132)) does the source give for `COc1cc(OC)cc(C(=O)N2CCC(N3CC(CC#N)(n4cc(-c5ncnc6[nH]ccc56)cn4)C3)CC2)c1` [Example 33, {1-[1-(3,5-dimethoxybenzoyl)piperidin-4-yl]-3-[4-(7H-pyrrolo[2,3-d]pyrimidin-4-yl)-1H-pyrazol-1-yl]azetidin-3-yl}acetonitrile] here?
Its IC50 is ≤ 10 nM.

And the IC50 [1]?
The IC50 was ≤ 5 nM.

What about the “IC50 Ratio JAK2/JAK1” value [2] of the same compound?
Its value is 0.5.

`N#CCC1(n2cc(-c3ncnc4[nH]ccc34)cn2)CN(C2CCN(C(=O)c3ccc(F)c(Cl)c3)CC2)C1` [Example 34, {1-[1-(3-chloro-4-fluorobenzoyl)piperidin-4-yl]-3-[4-(7H-pyrrolo[2,3-d]pyrimidin-4-yl)-1H-pyrazol-1-yl]azetidin-3-yl}acetonitrile] was tested. Which IC50 (Jak2 (a.a. 828-1132)) did it give?
Its IC50 is 10 to 50 nM.

What about the IC50 [1] of the same compound?
Its IC50 is 5 to 20 nM.

And the “IC50 Ratio JAK2/JAK1” value [2]?
The value was 6.0.

How did the IC50 (Jak2 (a.a. 828-1132)) turn out when `N#CCC1(n2cc(-c3ncnc4[nH]ccc34)cn2)CN(C2CCN(C(=O)c3ccc(F)c(F)c3)CC2)C1` [Example 35, {1-[1-(3,4-difluorobenzoyl)piperidin-4-yl]-3-[4-(7H-pyrrolo[2,3-d]pyrimidin-4-yl)-1H-pyrazol-1-yl]azetidin-3-yl}acetonitrile] was run?
Its IC50 is 10 to 50 nM.

And the IC50 [1]?
Its IC50 is ≤ 5 nM.

What about the “IC50 Ratio JAK2/JAK1” value [2] of the same compound?
Its value is 6.9.

With `COc1cc(F)cc(C(=O)N2CCC(N3CC(CC#N)(n4cc(-c5ncnc6[nH]ccc56)cn4)C3)CC2)c1` [Example 36, {1-[1-(3-fluoro-5-methoxybenzoyl)piperidin-4-yl]-3-[4-(7H-pyrrolo[2,3-d]pyrimidin-4-yl)-1H-pyrazol-1-yl]azetidin-3-yl}acetonitrile] as the compound, how does the IC50 (Jak2 (a.a. 828-1132)) read?
Its IC50 is ≤ 10 nM.

What about the IC50 [1] of the same compound?
Its IC50 is ≤ 5 nM.

What about the “IC50 Ratio JAK2/JAK1” value [2] of the same compound?
Its value is 2.3.

What does the source list for `COc1cc(C(=O)N2CCC(N3CC(CC#N)(n4cc(-c5ncnc6[nH]ccc56)cn4)C3)CC2)cc(Cl)n1` [Example 37, {1-[1-(2-chloro-6-methoxyisonicotinoyl)piperidin-4-yl]-3-[4-(7H-pyrrolo[2,3-d]pyrimidin-4-yl)-1H-pyrazol-1-yl]azetidin-3-yl}acetonitrile]?
IC50 (Jak2 (a.a. 828-1132)): ≤ 10 nM; IC50 [1]: ≤ 5 nM; IC50 Ratio JAK2/JAK1 [2]: 2.1

With `COc1ccc(F)cc1C(=O)N1CCC(N2CC(CC#N)(n3cc(-c4ncnc5[nH]ccc45)cn3)C2)CC1` [Example 38, {1-[1-(5-fluoro-2-methoxybenzoyl)piperidin-4-yl]-3-[4-(7H-pyrrolo[2,3-d]pyrimidin-4-yl)-1H-pyrazol-1-yl]azetidin-3-yl}acetonitrile] as the compound, how does the IC50 (Jak2 (a.a. 828-1132)) read?
The IC50 was ≤ 10 nM.

What about the IC50 [1] of the same compound?
Its IC50 is ≤ 5 nM.

And the “IC50 Ratio JAK2/JAK1” value [2]?
The value was 5.7.

How did the IC50 (Jak2 (a.a. 828-1132)) turn out when `COc1cccc(F)c1C(=O)N1CCC(N2CC(CC#N)(n3cc(-c4ncnc5[nH]ccc45)cn3)C2)CC1` [Example 39, {1-[1-(2-fluoro-6-methoxybenzoyl)piperidin-4-yl]-3-[4-(7H-pyrrolo[2,3-d]pyrimidin-4-yl)-1H-pyrazol-1-yl]azetidin-3-yl}acetonitrile] was run?
The IC50 was ≤ 10 nM.

And the IC50 [1]?
The IC50 was ≤ 5 nM.

What about the “IC50 Ratio JAK2/JAK1” value [2] of the same compound?
Its value is 3.2.

What does the source list for `COc1cc(F)ccc1C(=O)N1CCC(N2CC(CC#N)(n3cc(-c4ncnc5[nH]ccc45)cn3)C2)CC1` [Example 40, {1-[1-(4-fluoro-2-methoxybenzoyl)piperidin-4-yl]-3-[4-(7H-pyrrolo[2,3-d]pyrimidin-4-yl)-1H-pyrazol-1-yl]azetidin-3-yl}acetonitrile]?
IC50 (Jak2 (a.a. 828-1132)): ≤ 10 nM; IC50 [1]: ≤ 5 nM; IC50 Ratio JAK2/JAK1 [2]: 4.8
